Assay results taken from paper PMC11277489, “Novel Piperazine Derivatives of Vindoline as Anticancer Agents” (International Journal of Molecular Sciences, 2024).

What was measured:
[1] = tested on: CCRF-CEM; assay: NCI60 one-dose screen (10 μM), Leukemia; assay type: cell-based; settings: Homo sapiens, 10 μM, Leukemia, read-out: Growth percent rate
[2] = tested on: HL-60(TB); assay: NCI60 one-dose screen (10 μM), Leukemia; assay type: cell-based; settings: Homo sapiens; 10 μM; HL-60(TB), Leukemia; read-out: Growth percent rate
[3] = tested on: K-562; assay: NCI60 one-dose screen (10 μM), Leukemia; assay type: cell-based; settings: Homo sapiens, K562; 10 μM; K-562, Leukemia; read-out: Growth percent rate
[4] = tested on: MOLT-4; assay: NCI60 one-dose screen (10 μM), Leukemia; assay type: cell-based, human; settings: Homo sapiens; 10 μM; MOLT-4, Leukemia; read-out: Growth percent rate
[5] = tested on: RPMI-8226; assay: NCI60 one-dose screen (10 μM), Leukemia; assay type: cell-based; settings: Homo sapiens; 10 μM; RPMI-8226, Leukemia; read-out: Growth percent rate
[6] = tested on: A549/ATCC; assay: NCI60 one-dose screen (10 μM), Non-small Cell Lung Cancer; assay type: cell-based; settings: Homo sapiens; 10 μM; A549/ATCC, Non-small Cell Lung Cancer; read-out: Growth percent rate
[7] = tested on: EKVX; assay: as above; assay type: cell-based; settings: Homo sapiens, 10 μM, Non-small Cell Lung Cancer, read-out: Growth percent rate
[8] = tested on: HOP-62; assay: as above; assay type: cell-based; settings: Homo sapiens; 10 μM; HOP-62, Non-small Cell Lung Cancer; read-out: Growth percent rate
[9] = tested on: NCI-H23; assay: as above; assay type: cell-based; settings: Homo sapiens; 10 μM; NCI-H23, Non-small Cell Lung Cancer; read-out: Growth percent rate
[10] = tested on: NCI-H322M; assay: as above; assay type: cell-based; settings: Homo sapiens, 10 μM, Non-small Cell Lung Cancer, read-out: Growth percent rate
[11] = tested on: NCI-H522; assay: as above; assay type: cell-based; settings: Homo sapiens; 10 μM; NCI-H522, Non-small Cell Lung Cancer; read-out: Growth percent rate
[12] = tested on: COLO 205; assay: NCI60 one-dose screen (10 μM), Colon Cancer; assay type: cell-based, human
[13] = tested on: HCC-2998; assay: NCI60 one-dose screen (10 μM), Colon Cancer; assay type: cell-based; settings: Homo sapiens; 10 μM; HCC-2998, Colon Cancer; read-out: Growth percent rate
[14] = tested on: HCT-116; assay: NCI60 one-dose screen (10 μM), Colon Cancer; assay type: cell-based; settings: Homo sapiens; 10 μM; HCT-116, Colon Cancer; read-out: Growth percent rate
[15] = tested on: HCT-15; assay: NCI60 one-dose screen (10 μM), Colon Cancer; assay type: cell-based; settings: Homo sapiens; 10 μM; HCT-15, Colon Cancer; read-out: Growth percent rate
[16] = tested on: HT29; assay: NCI60 one-dose screen (10 μM), Colon Cancer; assay type: cell-based; settings: Homo sapiens, HT-29; 10 μM; HT29, Colon Cancer; read-out: Growth percent rate
[17] = tested on: KM12; assay: NCI60 one-dose screen (10 μM), Colon Cancer; assay type: cell-based, human; settings: Homo sapiens; 10 μM; KM12, Colon Cancer; read-out: Growth percent rate
[18] = tested on: SW-620; assay: NCI60 one-dose screen (10 μM), Colon Cancer; assay type: cell-based; settings: Homo sapiens; 10 μM; SW-620, Colon Cancer; read-out: Growth percent rate
[19] = tested on: SF-268; assay: NCI60 one-dose screen (10 μM), CNS Cancer; assay type: cell-based; settings: Homo sapiens; 10 μM; SF-268, CNS Cancer; read-out: Growth percent rate
[20] = tested on: SF-295; assay: NCI60 one-dose screen (10 μM), CNS Cancer; assay type: cell-based; settings: Homo sapiens; 10 μM; SF-295, CNS Cancer; read-out: Growth percent rate
[21] = tested on: SF-539; assay: NCI60 one-dose screen (10 μM), CNS Cancer; assay type: cell-based, human; settings: Homo sapiens; 10 μM; SF-539, CNS Cancer; read-out: Growth percent rate
[22] = tested on: SNB-19; assay: NCI60 one-dose screen (10 μM), CNS Cancer; assay type: cell-based; settings: Homo sapiens; 10 μM; SNB-19, CNS Cancer; read-out: Growth percent rate
[23] = tested on: LOX IMVI; assay: NCI60 one-dose screen (10 μM), Melanoma; assay type: cell-based, human; settings: Homo sapiens; 10 μM; LOX IMVI, Melanoma; read-out: Growth percent rate
[24] = tested on: MALME-3M; assay: NCI60 one-dose screen (10 μM), Melanoma; assay type: cell-based; settings: Homo sapiens; 10 μM; MALME-3M, Melanoma; read-out: Growth percent rate
[25] = tested on: M14; assay: NCI60 one-dose screen (10 μM), Melanoma; assay type: cell-based; settings: Homo sapiens; 10 μM; M14, Melanoma; read-out: Growth percent rate
[26] = tested on: MDA-MB-435; assay: NCI60 one-dose screen (10 μM), Melanoma; assay type: cell-based; settings: Homo sapiens; 10 μM; MDA-MB-435, Melanoma; read-out: Growth percent rate
[27] = tested on: SK-MEL-2; assay: NCI60 one-dose screen (10 μM), Melanoma; assay type: cell-based; settings: Homo sapiens; 10 μM; SK-MEL-2, Melanoma; read-out: Growth percent rate
[28] = tested on: SK-MEL-28; assay: NCI60 one-dose screen (10 μM), Melanoma; assay type: cell-based; settings: Homo sapiens; 10 μM; SK-MEL-28, Melanoma; read-out: Growth percent rate
[29] = tested on: SK-MEL-5; assay: NCI60 one-dose screen (10 μM), Melanoma; assay type: cell-based, human
[30] = tested on: UACC-257; assay: NCI60 one-dose screen (10 μM), Melanoma; assay type: cell-based; settings: Homo sapiens; 10 μM; UACC-257, Melanoma; read-out: Growth percent rate
[31] = tested on: IGROV1; assay: NCI60 one-dose screen (10 μM), Ovarian Cancer; assay type: cell-based; settings: Homo sapiens, IGROV-1; 10 μM; IGROV1, Ovarian Cancer; read-out: Growth percent rate
[32] = tested on: OVCAR-3; assay: NCI60 one-dose screen (10 μM), Ovarian Cancer; assay type: cell-based; settings: Homo sapiens; 10 μM; OVCAR-3, Ovarian Cancer; read-out: Growth percent rate
[33] = tested on: OVCAR-4; assay: NCI60 one-dose screen (10 μM), Ovarian Cancer; assay type: cell-based; settings: Homo sapiens; 10 μM; OVCAR-4, Ovarian Cancer; read-out: Growth percent rate
[34] = tested on: OVCAR-8; assay: NCI60 one-dose screen (10 μM), Ovarian Cancer; assay type: cell-based; settings: Homo sapiens; 10 μM; OVCAR-8, Ovarian Cancer; read-out: Growth percent rate
[35] = tested on: 786–0; assay: NCI60 one-dose screen (10 μM), Renal Cancer; assay type: cell-based; settings: Homo sapiens; 10 μM; 786-0, Renal Cancer; read-out: Growth percent rate
[36] = tested on: ACHN; assay: NCI60 one-dose screen (10 μM), Renal Cancer; assay type: cell-based; settings: Homo sapiens, 10 μM, Renal Cancer, read-out: Growth percent rate
[37] = tested on: CAKI-1; assay: NCI60 one-dose screen (10 μM), Renal Cancer; assay type: cell-based; settings: Homo sapiens; 10 μM; CAKI-1, Renal Cancer; read-out: Growth percent rate
[38] = tested on: RXF 393; assay: NCI60 one-dose screen (10 μM), Renal Cancer; assay type: cell-based, human; settings: Homo sapiens; 10 μM; RXF 393, Renal Cancer; read-out: Growth percent rate
[39] = tested on: SN12C; assay: NCI60 one-dose screen (10 μM), Renal Cancer; assay type: cell-based; settings: Homo sapiens, 10 μM, Renal Cancer, read-out: Growth percent rate
[40] = tested on: TK-10; assay: NCI60 one-dose screen (10 μM), Renal Cancer; assay type: cell-based; settings: Homo sapiens; 10 μM; TK-10, Renal Cancer; read-out: Growth percent rate
[41] = tested on: MCF7; assay: NCI60 one-dose screen (10 μM), Breast Cancer; assay type: cell-based; settings: Homo sapiens; 10 μM; MCF7, Breast Cancer; read-out: Growth percent rate
[42] = tested on: HS 578T; assay: NCI60 one-dose screen (10 μM), Breast Cancer; assay type: cell-based; settings: Homo sapiens; 10 μM; HS 578T, Breast Cancer; read-out: Growth percent rate

Work on `CC[C@]12C=CCN3CC[C@@]4(c5ccc(OC)cc5N(C)[C@H]4[C@@](O)(C(=O)OC)[C@@H]1OC(=O)CCC(=O)N1CCN(c4ccc(C(F)(F)F)cc4)CC1)[C@@H]32` [Compound 28] yielded an activity at 10 µM [1] of 4.4%, an activity at 10 µM [2] of 4.32% and an activity at 10 µM [3] of 16.9%. The activity at 10 µM [4] was 18.7%, the activity at 10 µM [5] was 8.8% and the activity at 10 µM [6] was 13.6%. The activity at 10 µM [7] was 20.9%, the activity at 10 µM [8] was 30.4% and the activity at 10 µM [9] was 8.32%. It also gave an activity at 10 µM [10] of 43.7%, an activity at 10 µM [11] of -9.16% and a growth percent rate ([12]; 10 μM one-dose, COLO-205 colon cancer, negative = lethality) of −90.33%. It also gave an activity at 10 µM ([12]; Homo sapiens, 10 μM, COLO 205, Colon Cancer, read-out: Growth percent rate) of -90.3%, an activity at 10 µM [13] of -75.2% and an activity at 10 µM [14] of 29.4%. The activity at 10 µM [15] was 6.71%, the activity at 10 µM [16] was -50.4% and the activity at 10 µM [17] was 3.83%. The activity at 10 µM [18] was 20.7%, the activity at 10 µM [19] was 13.1% and the activity at 10 µM [20] was 1.73%. For the same compound, the activity at 10 µM [21] was 8.28%, the activity at 10 µM [22] was 16.2% and the activity at 10 µM [23] was -75.8%. It also gave an activity at 10 µM [24] of 2.45%, an activity at 10 µM [25] of -66.8% and an activity at 10 µM [26] of 5.7%. It also gave an activity at 10 µM [27] of -84.7%, an activity at 10 µM [28] of 15% and a growth percent rate ([29]; 10 μM one-dose, SK-MEL-5 melanoma, negative = lethality) of −92.46%. The activity at 10 µM ([29]; Homo sapiens, 10 μM, SK-MEL-5, Melanoma, read-out: Growth percent rate) was -92.5%, the activity at 10 µM [30] was 19.5% and the activity at 10 µM [31] was -42.3%. For the same compound, the activity at 10 µM [32] was -2.22%, the activity at 10 µM [33] was 6.5% and the activity at 10 µM [34] was 10.7%. For the same compound, the activity at 10 µM [35] was 20.7%, the activity at 10 µM [36] was -3.87% and the activity at 10 µM [37] was -10.2%. For the same compound, the activity at 10 µM [38] was -12.9%, the activity at 10 µM [39] was 9.74% and the activity at 10 µM [40] was -5.03%. The activity at 10 µM [41] was 3.97% and the activity at 10 µM [42] was 20.1%.
